Test results: US20240180884A1, “PYRIDOSTIGMINE FOR USE IN THE TREATMENT OF COVID-19” (priority 2021, published 2024)

System: SARS-COV-2 infection (severe COVID-19)
Test: Randomized, parallel, double-blind, placebo-controlled clinical trial of oral pyridostigmine in adults hospitalized due to severe COVID-19
Type: in vivo, human
Details: for Primary outcome: Invasive mechanical ventilation or death - %: N = 94, day 28, placebo 23.4%; for Death - % (28-day case fatality): day 28, 60 mg/day orally, placebo 20.2%; for Discharge - % (probability of being discharged from the hospital within 28 days of randomization): placebo 79.8%
Experimental: The trial was conducted to reduce the incidence of mechanical ventilation or death in adults hospitalized due to severe COVID-19. A randomized, parallel, double-blind, placebo-controlled clinical trial was conducted. Participants were randomized (1:1 ratio) to receive oral pyridostigmine at a dose of 60 mg/day orally or an identical placebo (drug-grade starch) until the occurrence of any of the a priori specified outcomes, the hospital discharge or a maximum period of 14 days of hospital confinement, whichever comes first. The study was externally and independently watched and monitored by an independent Data and Security Monitoring Committee (DSMB). The study was conducted in two parts: an initial phase aimed at determining safety (from May 5 to Jul. 4, 2020) in which the first 44 participants were evaluated, followed by a part of a phase aimed at evaluating the effect, or lack thereof, of pyridostigmine in patients with severe COVID-19 (Jul. 5, 2020 to Jan. 30, 2021).
Adult hospitalized patients (>18 years) with confirmed SARS-COV-2 infection based on a positive RT-PCR test for SARS-COV-2 ribonucleic acid in a respiratory sample (nasopharyngeal or nasal swab) and a imaging study compatible with pneumonia, and at least one criterion of high risk of death.
Participants were randomized 1:1, with parallel allocation. Demographic information was collected from the participants at baseline, including age, sex, presence of comorbidities (including diabetes mellitus, hypertension, obesity, cardiovascular disease, lung disease or other chronic medical conditions). Participants who had already been discharged from the hospital by day 28 were contacted by phone to assess their vital and functional status.
Based on early evidence from China, an estimated 25% of patients hospitalized with severe SARS-COV-2 infection would develop complications that would lead to the need for invasive mechanical ventilation or death. Consequently, it is estimated that this sample size would allow us to identify with a power of 80% a reduction in the need for invasive mechanical ventilation or death of 10% in the group that received pyridostigmine compared to the group that received placebo, using a two-tailed […] at the significance level of 0.05. […] Based on the results of said analysis and with the data presented here, it was decided to terminate the study early.
The study was carried out at Instituto Nacional de Ciencias Médicas y Nutrición Salvador Zubirán (principal center) and Instituto Nacional de Cardiología Ignacio Chávez (recruiting center), two COVID-19 designated hospitals in Mexico City, Mexico.
An intention-to-treat analysis was performed comparing the proportion of outcomes between both therapeutic arms using the X^2 test. A multivariate logistic regression model was used to evaluate the variables associated with primary outcomes.

[1] = at the proposed dose of pyridostigmine (60 mg/day)
[2] = secondary outcome, 60 mg/day orally, N = 94

CN(C)C(=O)Oc1ccc[n+](C)c1 [Pyridostigmine]
Median time (IQR) from randomization to discharge (60 mg/day orally, N = 94): 5 days | Rate of adverse events [1]: 5-6% | Serious adverse effects [1]: no serious adverse effects reported | Primary outcome: Invasive mechanical ventilation or death - % (hospitalized severe COVID-19 patients, 60 mg/day orally up to 14 days, p=0.03): (11.7) % | Primary outcome: Invasive mechanical ventilation or death - % (hospitalized severe COVID-19 patients, 60 mg/day orally up to 14 days, p=0.03, listed as pyridostigmine): 11.7% | Primary outcome: Invasive mechanical ventilation or death - no. (hospitalized severe COVID-19 patients, 60 mg/day orally up to 14 days, N = 94, intention to treat, day 28): 11 | Death after invasive mechanical ventilation (text, among ventilated patients) (placebo 57.1%, no difference between groups): 33.3% | Risk index, 28-day case fatality (pyridostigmine vs. placebo, 95% CI 0.16 to 0.7, p=0.01): 0.33 | Hazard ratio, invasive mechanical ventilation or death on day 28 (pyridostigmine vs. placebo, 95% CI 0.24 to 0.94, p=0.03): 0.47 | Death after invasive mechanical ventilation - no. [2]: 2 | Invasive mechanical ventilation - % [2]: (6.4) % | Invasive mechanical ventilation - no. [2]: 6 | Invasive mechanical ventilation - % (secondary outcome, 60 mg/day orally, N = 94, listed as pyridostigmine): 6.3% | Death - no. (secondary outcome, before day 28, 60 mg/day orally, N = 94): 7 | Death - % (28-day case fatality) (secondary outcome, N = 94, p=0.01): (7.5) % | Death - % (28-day case fatality) (secondary outcome, N = 94, p=0.01, listed as pyridostigmine): 7.4% | Death after invasive mechanical ventilation - % (secondary outcome, percent of all N = 94): (2.1) % | Discharge - no. (secondary outcome, within 28 days of randomization, N = 94): 87 | Discharge - % (probability of being discharged from the hospital within 28 days of randomization) (within 28 days of randomization, N = 94, p=0.01): (92.6) % | Discharge - % (probability of being discharged from the hospital within 28 days of randomization) (within 28 days of randomization, N = 94, p=0.01, listed as pyridostigmine): 92.6%
